# Experiments:
# [1] = Chemical stability (60° C. oven for 48 h); type: physicochemical; details: 60° C. for 48 h; <96% considered unstable
# Protocol: Compounds were transferred into transparent glass vials and placed in 60° C. oven for 48 h. Compound with <96% stability are considered unstable.
# [2] = tested on: adjuvant arthritis caused by Mycobacterium butyricum; test: Efficacy against adjuvant arthritis; type: in vivo; details: for preventing effect on emergence of adjuvant arthritis: daily doses from day 0, GlcN HCl 90 mg, GV-GlcN 30 mg glucosamine equivalent, FIG. 6; for paw thickness after treatment of established adjuvant arthritis: four days of daily doses from day 14, GlcN 90 mg/kg, GV-GlcN 30 mg/kg GlcN equivalent, FIG. 7
# Protocol: Under anesthesia, rats were injected with 0.2 ml of 50 mg/ml Mycobacterium butyricum suspended in squalene in the base of the tail (day 0). Their paw thickness was measure daily. Within 12-14 days significant increases in paw thickness were noticed, indicative of the emergence if adjuvant arthritis. Repeated daily doses of drugs were administered either right after the time of Mycobacterium injection (to prevent emergence of arthritis) or after the appearance of arthritis (to treat arthritis). Animals were monitored for their arthritis status during the entire length of the experiment.
# On day zero, Mycobacterium butyricum is injected to all rats along with daily doses of glucosamine, GV-GlnN or placebo. The placebo group develops severe AA but not the ones that received either treatment. Upon discontinuation of the treatments, AA emerges (FIG. 6).
# [3] = Absorption through everted rat gut; type: in vitro ADME
# Protocol: (§1) Pro-drugs were incubated for 2 h with homogenized rat stomach or intestine while the pH is kept at 1.0 or 7.4, respectively. Samples are taken at 30 min interval for the analysis of the pro-drug and GlcN. This procedure was used as a prerequisite to further tests described in Examples 6, 7 and 8. A compound with low stability under this condition was decided to be unsuitable for further test. […] Everted rat gut sacks are immersed in 80 μg/mL (GlcN equivalent) of GlucN HCl or GV-GluN HCl solution. The appearance of glucosamine each compound inside the sack (serosal) was measured. […] Gly-Val-COO-GlcN is GV-GlycN.
# A mid line incision was made in the anesthetised rat abdomen, the intestine was exposed and five 10 cm segments of the jejunum are cut. In ice cold Krebs Henseleit buffer, the intestinal content are removed and each segment are everted over a glass rod, tied from one side, a polyethylene tube is inserted into the other side and tied. The segments are filled with buffer and incubated in a perfusion apparatus containing oxygenated Krebs Henseleit buffer at 37° C. The test compound was added to the mucosal (outer surface of the everted gut) and serial samples were collected from both sides. The percent of the movement from outside (mucosal) to inside (serosal) was measured and compared (FIG. 4). […]
# [4] = Bioavailability in the rat (plasma GlcN AUC after oral dose); type: in vivo
# Protocol: Prodrugs or GlcN HCl or sulphate were administered to rats in single oral doses equivalent to a fix amount of GlcN. Plasma GlcN concentrations were measured using HPLC in serial sample collected over a period of time. The areas under plasma-concentration-time curves (AUC or relative bioavailability) were calculated and compared (FIGS. 5 and 5a).
# [5] = Stability in the gut (incubation with homogenized rat stomach or intestine); type: in vitro ADME; details: incubated with homogenized rat stomach (pH 1.0) or intestine (pH 7.4); read-out: t1/2 of decomposition in the presence of rat gut
# Protocol: as §1
# [6] = oral administration, reference (23); cited from earlier work
SMILES,physicochemical stability (percent stable) [1] [%],preventing effect on emergence of adjuvant arthritis [2],paw thickness after treatment of established adjuvant arthritis [2],paw thickness after treatment of established adjuvant arthritis ([2]; listed as GV-GluN),"stability after exposure to the gut (no conversion into glucosamine) ([3]; 60 minutes exposure, FIG. 4)",transport across everted rat gut ([3]; mucosal to serosal) [%],"area under the plasma glucosamine concentration-time curve compared with GlcN ([4]; 110 mg/kg (GlcN equivalent), FIG. 5A, n=3-5/group)","mean AUC (bioavailability) of GlcN in rat plasma compared with GlcN HCl ([4]; oral, 110 mg GlcN equivalent, FIG. 5, AUC(0-4))",half-life [5] [h],AUC of GlcN after oral HCl versus sulphate salt [6],paw thickness after treatment of established adjuvant arthritis ([2]; listed as GlcN HCl)
"CC(C)C(NC(=O)CN)C(=O)OCC1OC(O)C(N)C(O)C1O (stereo not shown) [GV-GlcN, (5-amino-3,4,6-trihydroxyoxan-2-yl)methyl 2-(2-aminoacetamido)-3-methylbutanoate]",> 96,prevent the disease,significantly reduce the paw thickness,Significant (p>0.05) reduced paw thickness,greater than 96%,~80,significantly greater than GlcN,significantly and substantially greater,> 16,,
N[C@H]1C(O)O[C@H](CO)[C@@H](O)[C@@H]1O.N[C@H]1C(O)O[C@H](CO)[C@@H](O)[C@@H]1O.O=S(=O)(O)O (stereo partly shown) [GlcN sulfate],,,,,,,,,,equal AUC values,
"N[C@H]1C(O)O[C@H](CO)[C@@H](O)[C@@H]1O (stereo partly shown) [GlcN, Glucosamine]",,prevent the disease,significantly reduce the paw thickness,,,,,,,,Significant (p>0.05) reduced paw thickness

# Reference: US8772227B2, “Glucosamine pro-drug” (priority 2011, dated 2014)
